The values that follow come from patent US20250188123A1, “PROTEASE INHIBITORS” (Regents of the University of Minnesota, priority 2022, published 2025).

“Also recorded” adds a separate entry of the source. Read-outs that look alike come from different tables or passages of the source.

The target of this assay is T1, recombinant human caspase-2 (cleavage of tau at D314) (Homo sapiens, UniProt P42575).
T1 construct: human caspase-2 p19 and p12 subunits were cloned as two separate open reading frames in the pCOLADuet-1 vector; made in house; host or cells: E. coli BL21(DE3)
T1 sequence (P42575 170-325 limits assumed): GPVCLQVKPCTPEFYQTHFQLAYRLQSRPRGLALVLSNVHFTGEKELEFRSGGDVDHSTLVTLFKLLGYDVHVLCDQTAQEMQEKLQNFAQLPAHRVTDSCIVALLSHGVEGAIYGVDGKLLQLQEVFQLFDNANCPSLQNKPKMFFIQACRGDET
T1 sequence (P42575 348-452 limits assumed): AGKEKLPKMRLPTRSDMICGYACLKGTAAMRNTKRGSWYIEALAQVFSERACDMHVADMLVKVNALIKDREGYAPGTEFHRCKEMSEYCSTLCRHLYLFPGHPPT
The experiment in a line: In vitro caspase-2-catalyzed tau cleavage assay (Δtau314 production, IP/WB). In kind it is biochemical. The settings on record: for inhibition at 10 µM: read-out: inhibition of Casp2-catalyzed Δtau314 production (tau cleavage at D314). Here is the method: DNA sequences encoding human caspase-2 p19 and p12 subunits were cloned as two separate open reading frames in the pCOLADuet-1 vector (Millipore Sigma, Burlington, MA). The DNA sequence encoding human microtubule-associated protein tau 0N4R isoform was cloned in the pET28a vector (Millipore Sigma). Expression of recombinant human caspase-2 and tau was induced using 150 μM isopropyl-β-D-thiogalactopyranoside (IPTG) (Promega, Madison, WI) in the BL21(DE3) E. coli strain (Millipore Sigma) at room temperature for 16 hours while shaking at 250 rpm. Cells were then harvested via centrifugation at 6,000 g, 4° C. for 15 minutes, followed by lysis via sonication. Proteins were purified using HisPur Ni-NTA resin (Thermo Fisher Scientific, Waltham, MA) followed by HiTrap Chelating HP columns (GE Healthcare Life Sciences, Piscataway, NJ). Proteins were stored in 1× phosphate-buffered saline (pH 7.4) at 10 mg/mL (determined using a BCA assay (Thermo Fisher Scientific)), −80° C. until further use.
Purified recombinant Casp2 (final concentration during pre-incubation: 67 μM) was pre-incubated with various concentrations of inhibitory compounds at 4° C. for 72 h. Pre-treated enzyme was then incubated with purified recombinant tau at a molar ratio of 1:1 in 37° C. water bath, 1× reaction buffer (25 mM 4-(2-hydroxyethyl)-1-piperazineethanesulfonic acid (HEPES), 0.1% (w/v) 3-[(3-cholamidopropyl)dimethylammonio]-1-propanesulfonate (CHAPS), 10 mM dithiothreitol (DTT), pH 7.5) for 7 h. The final volume of each reaction was 100 μL. At the end of the 7-h incubation, 0.1% (v/v) protease inhibitor cocktail (Millipore Sigma) was added to stop the reactions.
Immediately after the reaction was stopped, the 100 μL enzyme-product mixture was diluted in 400 μL IP buffer (50 mM Tris-HCl (pH 7.4) and 150 mM NaCl, containing 0.1 mM phenylmethylsulfonyl fluoride, 0.2 mM 1,10-phenanthroline monohydrate, and protease inhibitor cocktail (Millipore Sigma)), and then incubated with 10 μg of Δtau314-specific monoclonal antibody 4F3 and 50 μL of Protein G Sepharose 4 Fast Flow resin (GE Healthcare) at 4° C. for 14-16 h. Subsequent resin wash and protein elution were performed as described previously (Liu P, et al., Scientific Reportsm 2020, 10, 3869). WB was performed according to a previously published protocol (Liu P, et al., Acta Neuropathologica Communications, 2019; 7, 111).

In the case of `CC(=O)N[C@H](C(=O)NC(CC(=O)O)C(=O)N[C@H](C(=O)N1CCc2cc(C)ccc2C1C(=O)N[C@H](C=O)CC(=O)O)C(C)C)C(C)C` (stereo in doubt) [Compound 30a, (R)-3-((S)-2-acetamido-3-methylbutanamido)-4-(((S)-1-((S)-1-(((S)-1-carboxy-3-oxopropan-2-yl)carbamoyl)-6-methyl-3,4-dihydroisoquinolin-2(1H)-yl)-3-methyl-1-oxobutan-2-yl)amino)-4-oxobutanoic acid, reference compound], the “inhibition of Casp2-catalyzed Δtau314 production (tau cleavage at D314)” value (compound at 10 μM, no-compound control = 100% Δtau314, 10 µM) is “no inhibition; also recorded: did not inhibit”.

As to `Cc1ccc2c(c1)CCN(C(=O)[C@@H](NC(=O)[C@H](CCCC(=O)O)NC(=O)C1Cc3ccccc3N1)C(C)C)[C@@H]2C(=O)N[C@H](C#N)CC(=O)O` (stereo partly drawn) [Compound 1, (8)-6-(((S)-1-((8)-1-(((S)-2-carboxy-1-cyanoethyl)carbamoyl)-6-methyl-3,4-dihydroisoquinolin-2(1H)-yl)-3-methyl-1-oxobutan-2-yl)amino)-5-((S)-indoline-2-carboxamido)-6-oxohexanoic acid], the IC50 stood at 2020 ± 190 nM and the inhibition at 10 µM was determined as 96%.

For the compound `CC(=O)N[C@H](C(=O)N[C@@H](CC(=O)O)C(=O)N[C@H](C(=O)N1CCc2cc(C)ccc2[C@H]1C(=O)N[C@H](C=O)CC(=O)O)C(C)C)C(C)C` [Compound 30b, (S)-3-((S)-2-acetamido-3-methylbutanamido)-4-(((S)-1-((S)-1-(((S)-1-carboxy-3-oxopropan-2-yl)carbamoyl)-6-methyl-3,4-dihydroisoquinolin-2(1H)-yl)-3-methyl-1-oxobutan-2-yl)amino)-4-oxobutanoic acid, reference compound], where the note is “compound at 10 μM, no-compound control = 100% Δtau314”, the inhibition at 10 µM was determined as 68%.
